Assay results reported in patent US9409891B2, “Solid forms of an antiviral compound” (Gilead Sciences, Inc., priority 2012, dated 2016).
≈ marks a conversion by molar mass, not a printed value.

Key:
[1] = Desolvation screening (vacuum oven); assay type: physicochemical; details: heated to about 110~120° C. in a vacuum oven
Experimental: Another method of generating anhydrous forms is desolvation. In this study, the solvates and hydrates of Compound I were heated to about 110˜120° C. in a vacuum oven to desolvate.

[2] = Follow-up stable form screening (Form II stirred in solvents at about 22° C.); assay type: physicochemical; details: about 22° C., Form II start
Experimental: In the follow-up stable form screening experiments, the starting materials were Form II. The solids were stirring in the solvents list below at about 22° C. in 2 ml vials.

[3] = dried at 70° C.
[4] = Stable form competition study in ACN; assay type: physicochemical; details: ACN mother liquor
Experimental: To further verify the stability of Form II, competitive crystallization was conducted by adding Forms I through V into a high concentration solution of amorphous Compound I in ACN. […] The mother liquor obtained, which was saturated in terms of Form II, was used in another test in which other forms (Forms I, III, IV and V) were added.

[5] = First stable form screening (amorphous Compound I in 19 solvents/mixtures at ambient conditions); assay type: physicochemical; details: for 2-Week solids / 24 h solids / solubility: amorphous start, ambient; for solubility: thermodynamic from solid
Experimental: The first stable form screening was conducted using 19 solvents/mixtures at ambient conditions. The starting material was amorphous. Anti-solvents, either water or heptane, were used to precipitate the solids.
Form I is a hydrate form obtained from ACN/water 50:50 mixture. Form II is an anhydrous form obtained from ACN. […] Solids in water and heptane were amorphous. Other samples remained as solutions.
It appears to be a solvated form. […] Solids in water and heptane remained amorphous. Other samples remained as solution.

[6] = 2 Me-THF, init. conc. 77.4 mg/mL
[7] = Acetone, init. conc. 79.6 mg/mL
[8] = Heptane, init. conc. 12.7 mg/mL
[9] = Toluene, init. conc. 16.2 mg/mL

With “5-(3,3-dimethylbutyn-1-yl)-3-[(cis-4-hydroxy-4-{[(3S)-tetrahydrofuran-3-yloxy]methyl}cyclohexyl){[(1R)-4-methylcyclohex-3-en-1-yl]carbonyl}amino]thiophene-2-carboxylic acid solvate [Form V]” the “Final Form after desolvation” value [1] was “Amorphous”.
For CC1=CC[C@H](C(=O)N(c2cc(C#CC(C)(C)C)sc2C(=O)O)C2CCC(O)(CO[C@H]3CCOC3)CC2)CC1.O (relative stereo) [Form VIII, 5-(3,3-dimethylbutyn-1-yl)-3-[(cis-4-hydroxy-4-{[(3S)-tetrahydrofuran-3-yloxy]methyl}cyclohexyl){[(1R)-4-methylcyclohex-3-en-1-yl]carbonyl}amino]thiophene-2-carboxylic acid monohydrate], the “Final Form after desolvation” value [1] was “VIII”.
For CC(C)O.CC1=CC[C@H](C(=O)N(c2cc(C#CC(C)(C)C)sc2C(=O)O)C2CCC(O)(CO[C@H]3CCOC3)CC2)CC1 (relative stereo) [Form VII, 5-(3,3-dimethylbutyn-1-yl)-3-[(cis-4-hydroxy-4-{[(3S)-tetrahydrofuran-3-yloxy]methyl}cyclohexyl){[(1R)-4-methylcyclohex-3-en-1-yl]carbonyl}amino]thiophene-2-carboxylic acid isopropyl alcohol solvate], the “Final Form after desolvation” value [1] was “Amorphous” and the solubility ([2]; IPA, value for Form VII) was 266 mg/mL.
In the case of CC1=CC[C@H](C(=O)N(c2cc(C#CC(C)(C)C)sc2C(=O)O)[C@H]2CC[C@](O)(CO[C@H]3CCOC3)CC2)CC1.O (relative stereo) [Form I, 5-(3,3-dimethylbutyn-1-yl)-3-[(cis-4-hydroxy-4-{[(3S)-tetrahydrofuran-3-yloxy]methyl}cyclohexyl){[(1R)-4-methylcyclohex-3-en-1-yl]carbonyl}amino]thiophene-2-carboxylic acid hydrate], the “Solid state after drying (XRPD)” value [3] is reported as “partially became amorphous”, the “Behaviour of solids added to mother liquor saturated in Form II” value [4] is reported as “dissolved quickly” and the “Final Form after desolvation” value [1] is reported as “Amorphous”. It also gave a solubility ([2]; Water, value for Form I) of 0.25 mg/mL.
Molecule CC1=CC[C@H](C(=O)N(c2cc(C#CC(C)(C)C)sc2C(=O)O)C2CCC(O)(CO[C@H]3CCOC3)CC2)CC1.CCO (relative stereo) [Form IX, 5-(3,3-dimethylbutyn-1-yl)-3-[(cis-4-hydroxy-4-{[(3S)-tetrahydrofuran-3-yloxy]methyl}cyclohexyl){[(1R)-4-methylcyclohex-3-en-1-yl]carbonyl}amino]thiophene-2-carboxylic acid ethanol solvate] has a solubility ([2]; EtOH, value for Form IX) of 283 mg/mL.
In the case of CC1=CC[C@H](C(=O)N(c2cc(C#CC(C)(C)C)sc2C(=O)O)[C@H]2CC[C@](O)(CO[C@H]3CCOC3)CC2)CC1 [Compound I, 5-(3,3-dimethylbutyn-1-yl)-3-[(cis-4-hydroxy-4-{[(3S)-tetrahydrofuran-3-yloxy]methyl}cyclohexyl){[(1R)-4-methylcyclohex-3-en-1-yl]carbonyl}amino]thiophene-2-carboxylic acid], the 2-Week solids [5, 6] is reported as “solution”, the 24 h solids [5, 6] is reported as “solution” and the 2-Week solids [5, 7] is reported as “solution”. For the same molecule, the 24 h solids [5, 7] was “solution”, the 2-Week solids ([5]; EtOAc, init. conc. 49.4 mg/mL) was “solution” and the 24 h solids ([5]; EtOAc, init. conc. 49.4 mg/mL) was “solution”. For the same molecule, the 2-Week solids ([5]; EtOH, init. conc. 76 mg/mL) was “solution”, the 24 h solids ([5]; EtOH, init. conc. 76 mg/mL) was “solution” and the 2-Week solids [5, 8] was “amorphous”. For the same molecule, the 24 h solids [5, 8] was “amorphous”, the 24 h solids ([5]; IPA/water, init. conc. 47.7 mg/mL) was “solution” and the 2-Week solids ([5]; IPA, init. conc. 95.4 mg/mL) was “solution”. The 24 h solids ([5]; IPA, init. conc. 95.4 mg/mL) was “solution”, the 2-Week solids ([5]; IPAc, init. conc. 39.6 mg/mL) was “solution” and the 24 h solids ([5]; IPAc, init. conc. 39.6 mg/mL) was “solution”. For the same molecule, the 2-Week solids ([5]; MEK, init. conc. 65.6 mg/mL) was “solution”, the 24 h solids ([5]; MEK, init. conc. 65.6 mg/mL) was “solution” and the 2-Week solids ([5]; MIBK, init. conc. 60.2 mg/mL) was “solution”. For the same molecule, the 24 h solids ([5]; MIBK, init. conc. 60.2 mg/mL) was “solution”, the 24 h solids ([5]; MTBE, init. conc. >45 mg/mL) was “solution” and the 2-Week solids ([5]; MeCl2, init. conc. 36 mg/mL) was “solution”. The 24 h solids ([5]; MeCl2, init. conc. 36 mg/mL) was “solution”, the 2-Week solids ([5]; MeOH, init. conc. 87.4 mg/mL) was “solution” and the 24 h solids ([5]; MeOH, init. conc. 87.4 mg/mL) was “solution”. The 2-Week solids ([5]; THF, init. conc. 53.4 mg/mL) was “solution”, the 24 h solids ([5]; THF, init. conc. 53.4 mg/mL) was “solution” and the 2-Week solids [5, 9] was “solution”. For the same molecule, the 24 h solids [5, 9] was “solution”, the 2-Week solids ([5]; Water, init. conc. 11 mg/mL) was “amorphous” and the 24 h solids ([5]; Water, init. conc. 11 mg/mL) was “amorphous”. It also gave a solubility ([5]; aqueous with cosolvent or surfactant or cyclodextrin, ACN/water (50:50), solids I) of 0.23 mg/mL (≈ 0.423 mM), a solubility ([5]; aqueous with cosolvent or surfactant or cyclodextrin, EtOH/water, solids III then IV) of 14.5 mg/mL (≈ 26.7 mM) and a solubility ([5]; aqueous with cosolvent or surfactant or cyclodextrin, IPA/water, 2-week solids V) of 1.78 mg/mL (≈ 3.27 mM). It also gave a solubility ([5]; organic solvent or mixture, 2 Me-THF, remained solution) of over 77.4 mg/mL, a solubility ([5]; organic solvent or mixture, ACN, solids II) of 13 mg/mL (≈ 23.9 mM) and a solubility ([5]; organic solvent or mixture, Acetone, remained solution) of over 79.6 mg/mL. It also gave a solubility ([5]; organic solvent or mixture, EtOAc, remained solution) of over 49.4 mg/mL, a solubility ([5]; organic solvent or mixture, EtOH, remained solution) of over 76 mg/mL and a solubility ([5]; organic solvent or mixture, IPA, remained solution) of over 95.4 mg/mL. It also gave a solubility ([5]; organic solvent or mixture, IPAc, remained solution) of over 39.6 mg/mL, a solubility ([5]; organic solvent or mixture, MEK, remained solution) of over 65.6 mg/mL and a solubility ([5]; organic solvent or mixture, MIBK, remained solution) of over 60.2 mg/mL. For the same molecule, the solubility ([5]; organic solvent or mixture, MTBE, 2-week solids V) was 316 mg/mL (≈ 581 mM), the solubility ([5]; organic solvent or mixture, MeCl2, remained solution) was over 36 mg/mL and the solubility ([5]; organic solvent or mixture, MeOH, remained solution) was over 87.4 mg/mL. The solubility ([5]; organic solvent or mixture, THF, remained solution) was over 53.4 mg/mL and the solubility ([5]; organic solvent or mixture, Toluene, remained solution) was over 16.2 mg/mL.
For “5-(3,3-dimethylbutyn-1-yl)-3-[(cis-4-hydroxy-4-{[(3S)-tetrahydrofuran-3-yloxy]methyl}cyclohexyl){[(1R)-4-methylcyclohex-3-en-1-yl]carbonyl}amino]thiophene-2-carboxylic acid hydrate and/or solvate [Form III]”, the “Form conversion in slurry” value ([5]; EtOH/water slurry, after 2 weeks of stirring) was “converted to Form IV” and the “Form conversion upon drying” value ([5]; solids from EtOH/water, dried) was “converted to Form IV”.
CC1=CC[C@H](C(=O)N(c2cc(C#CC(C)(C)C)sc2C(=O)O)[C@H]2CC[C@](O)(CO[C@H]3CCOC3)CC2)CC1.CCC(C)=O (relative stereo) [Form X, 5-(3,3-dimethylbutyn-1-yl)-3-[(cis-4-hydroxy-4-{[(3S)-tetrahydrofuran-3-yloxy]methyl}cyclohexyl){[(1R)-4-methylcyclohex-3-en-1-yl]carbonyl}amino]thiophene-2-carboxylic acid methyl ethyl ketone] showed a solubility ([2]; MEK, value for Form X) of 127 mg/mL.
